Where “and” joins values, the source holds several entries; their conditions need not be identical. Equal values may be shown once.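 Results reflect a 48-hour exposure of cells in 96-well plates to compound at five concentrations. The concentration for 50% growth inhibition is given as GI50. TGI denotes the concentration required for complete inhibition of growth.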
Tests used:
Test in all cases: DTP human tumour cell line panel, 48 h
[1] = tested on: HL-60(TB) leukemia
[2] = tested on: SK-OV-3 ovarian
[3] = tested on: TK-10 renal
[4] = tested on: HOP-62 NSCLC
[5] = tested on: ACHN renal
[6] = tested on: SK-MEL-28 melanoma
[7] = tested on: MCF7 breast
[8] = tested on: NCI-H226 lung
[9] = tested on: NCI/ADR-RES ovarian
[10] = tested on: SN12C renal
[11] = tested on: HT29 colon
[12] = tested on: OVCAR-4 ovarian
[13] = tested on: RPMI-8226 leukemia
[14] = tested on: SNB-75 CNS
[15] = tested on: PC-3 prostate
[16] = tested on: OVCAR-3 ovarian
[17] = tested on: T-47D breast
[18] = tested on: A549 NSCLC
[19] = tested on: SR leukemia
[20] = tested on: K-562 leukemia
[21] = tested on: MDA-MB-231 breast
[22] = tested on: UACC-62 melanoma
[23] = tested on: HCT-15 colon
[24] = tested on: UO-31 renal
[25] = tested on: SF-268 CNS
[26] = tested on: CCRF-CEM leukemia
[27] = tested on: SK-MEL-2 melanoma
[28] = tested on: MDA-MB-435
[29] = tested on: BT-549 breast
[30] = tested on: OVCAR-5 ovarian
[31] = tested on: MALME-3M melanoma
[32] = tested on: SF-295 CNS
[33] = tested on: HOP-92 NSCLC
[34] = tested on: HCC-2998 colon
[35] = tested on: SNB-19 CNS
[36] = tested on: MDA-N
[37] = tested on: A498 renal
[38] = tested on: HCT-116 colon
[39] = tested on: MOLT-4 leukemia
[40] = tested on: SK-MEL-5 melanoma
[41] = tested on: 786-0 renal
[42] = tested on: RXF 393 renal
[43] = tested on: M14 melanoma
[44] = tested on: COLO 205 colon
[45] = tested on: OVCAR-8 ovarian
[46] = tested on: LOX IMVI melanoma
[47] = tested on: CAKI-1 renal
[48] = tested on: DU-145 prostate
[49] = tested on: SF-539 CNS
[50] = tested on: HS 578T breast
[51] = tested on: SW-620 colon
[52] = tested on: EKVX NSCLC
[53] = tested on: NCI-H460 lung
[54] = tested on: IGROV1 ovarian
[55] = tested on: NCI-H23 lung
[56] = tested on: NCI-H522 lung
[57] = tested on: UACC-257 melanoma
[58] = tested on: U251 CNS
[59] = tested on: KM12 colon

**Q.** Which TGI [1] does the source give for `CCNC(=O)OCC1C2=C(C(=O)C(C)=C(N)C2=O)N2CC3C(N3C)C12OC` (stereo not given) here?
**A.** > 44100 nM

**Q.** And the TGI [2]?
**A.** > 100000 nM

**Q.** What about the TGI [3] of the same compound?
**A.** > 100000 nM

**Q.** What about the TGI [4] of the same compound?
**A.** > 100000 nM

**Q.** And the TGI [5]?
**A.** > 61900 nM

**Q.** And the TGI [6]?
**A.** > 100000 nM

**Q.** What about the TGI [7] of the same compound?
**A.** > 100000 nM

**Q.** And the TGI [8]?
**A.** > 100000 nM

**Q.** What about the TGI [9] of the same compound?
**A.** > 100000 nM

**Q.** And the TGI [10]?
**A.** > 100000 nM

**Q.** And the TGI [11]?
**A.** > 100000 nM

**Q.** And the TGI [12]?
**A.** > 79000 nM

**Q.** What about the TGI [13] of the same compound?
**A.** > 100000 nM

**Q.** What about the TGI [14] of the same compound?
**A.** > 100000 nM

**Q.** What about the TGI [15] of the same compound?
**A.** > 100000 nM

**Q.** What about the TGI [16] of the same compound?
**A.** > 86200 nM

**Q.** What about the TGI [17] of the same compound?
**A.** > 100000 nM

**Q.** What about the TGI [18] of the same compound?
**A.** > 100000 nM

**Q.** And the TGI [19]?
**A.** > 32600 nM

**Q.** What about the TGI [20] of the same compound?
**A.** > 100000 nM

**Q.** What about the TGI [21] of the same compound?
**A.** > 100000 nM

**Q.** And the TGI [22]?
**A.** 33400 nM

**Q.** And the TGI [23]?
**A.** 50700 nM

**Q.** And the TGI [24]?
**A.** 64300 nM

**Q.** And the TGI [25]?
**A.** > 100000 nM

**Q.** What about the TGI [26] of the same compound?
**A.** > 100000 nM

**Q.** And the TGI [27]?
**A.** 71200 nM

**Q.** What about the TGI [28] of the same compound?
**A.** > 100000 nM

**Q.** And the TGI [29]?
**A.** 99100 nM

**Q.** And the TGI [30]?
**A.** > 100000 nM

**Q.** What about the TGI [31] of the same compound?
**A.** 41800 nM

**Q.** What about the TGI [32] of the same compound?
**A.** > 100000 nM

**Q.** And the TGI [33]?
**A.** > 100000 nM

**Q.** And the TGI [34]?
**A.** 35300 nM

**Q.** And the TGI [35]?
**A.** > 100000 nM

**Q.** And the TGI [36]?
**A.** > 100000 nM

**Q.** What about the TGI [37] of the same compound?
**A.** 77000 nM

**Q.** What about the TGI [38] of the same compound?
**A.** > 63500 nM

**Q.** What about the TGI [39] of the same compound?
**A.** > 76300 nM

**Q.** What about the TGI [40] of the same compound?
**A.** 29500 nM

**Q.** And the TGI [41]?
**A.** > 83000 nM

**Q.** And the TGI [42]?
**A.** > 100000 nM

**Q.** And the TGI [43]?
**A.** > 100000 nM

**Q.** And the TGI [44]?
**A.** > 100000 nM

**Q.** What about the TGI [45] of the same compound?
**A.** > 100000 nM

**Q.** And the TGI [46]?
**A.** > 68700 nM

**Q.** And the TGI [47]?
**A.** > 100000 nM

**Q.** And the TGI [48]?
**A.** > 100000 nM

**Q.** What about the TGI [49] of the same compound?
**A.** > 85100 nM

**Q.** And the TGI [50]?
**A.** > 100000 nM

**Q.** What about the TGI [51] of the same compound?
**A.** 32000 nM

**Q.** What about the TGI [52] of the same compound?
**A.** > 100000 nM

**Q.** And the TGI [53]?
**A.** 12100 nM

**Q.** And the TGI [54]?
**A.** 77000 nM

**Q.** What about the TGI [55] of the same compound?
**A.** 14200 nM

**Q.** What about the TGI [56] of the same compound?
**A.** 34500 nM

**Q.** What about the TGI [57] of the same compound?
**A.** > 100000 nM

**Q.** What about the TGI [58] of the same compound?
**A.** > 100000 nM

**Q.** Which results are given for `C=C1C(C(O)C[C@H](C)C2O[C@@]3(CCCCO3)CCC2C)O[C@@H]2CCC3(CCC(/C=C/[C@@H](C)C4CC(C)=CC5(O4)O[C@H](C[C@](C)(O)C(=O)O)CCC5O)O3)OC2[C@@H]1O` (stereo not given in full)?
**A.** GI50 [1]: 1.62 nM; TGI [1]: 7.8 nM and 16 nM; GI50 [2]: 10.6 nM; TGI [2]: 42.1 nM and 34.8 nM; GI50 [3]: 67 nM; TGI [3]: 202 nM and 36.2 nM; GI50 [4]: 7.4 nM and 3.98 nM; TGI [4]: 25.5 nM and 10.9 nM; GI50 [5]: 25.9 nM; TGI [5]: 101 nM and 61.8 nM; GI50 [6]: 4.33 nM; TGI [6]: 15.1 nM and 6.35 nM; GI50 [7]: 19.9 nM; TGI [7]: 44.1 nM and 20.7 nM; TGI [8]: 8.28 nM; GI50 [9]: 111 nM; TGI [9]: > 1000 nM and 778 nM; GI50 [10]: 20.2 nM; GI50 [11]: 21 nM; TGI [11]: 56.1 nM and 39.6 nM; GI50 [12]: 23.1 nM; TGI [12]: 89.8 nM and 62.7 nM; GI50 [13]: 4.22 nM; TGI [13]: 31.4 nM and 17.3 nM; GI50 [14]: 4.7 nM; TGI [14]: 39.5 nM and 4.2 nM; GI50 [15]: 12.6 nM; TGI [15]: 35.2 nM and 19.1 nM; GI50 [16]: 12.1 nM; TGI [16]: 31.6 nM and 9.27 nM; GI50 [17]: 13.1 nM; TGI [17]: 185 nM and 64.1 nM; GI50 [18]: 47.7 nM; TGI [18]: 255 nM and 258 nM; GI50 [19]: 54.1 nM; TGI [20]: 163 nM and 303 nM; GI50 [21]: 11.7 nM; GI50 [22]: 4.29 nM; TGI [22]: 16.1 nM and 8.61 nM; GI50 [23]: 46.1 nM; TGI [23]: 203 nM and 55 nM; GI50 [24]: 96 nM; TGI [24]: 238 nM and 101 nM; TGI [25]: 8.56 nM; GI50 [26]: 5.78 nM; TGI [26]: 40.9 nM and 93.1 nM; GI50 [27]: 3.53 nM; TGI [27]: 11.2 nM and 8.49 nM; GI50 [28]: 7.36 nM; GI50 [29]: 3.37 nM; TGI [29]: 11.5 nM and 27.6 nM; GI50 [30]: 7.06 nM; TGI [30]: 23.9 nM and 27.5 nM; GI50 [31]: 9.97 nM; GI50 [32]: 7.48 nM; TGI [32]: 86.7 nM and 25.9 nM; GI50 [33]: 13 nM; TGI [33]: 38.6 nM and 9.11 nM; TGI [34]: 9.25 nM; GI50 [35]: 4.86 nM; TGI [35]: 15.8 nM and 15.1 nM; GI50 [36]: 5.35 nM; GI50 [37]: 31.5 nM; GI50 [38]: 5.57 nM; GI50 [39]: 24.1 nM; TGI [39]: 61.5 nM and 53.5 nM; TGI [40]: 15.5 nM and 7.96 nM; GI50 [59]: 6.28 nM; GI50 [41]: 10.8 nM; TGI [41]: 27.2 nM and 34.3 nM; GI50 [42]: 0.277 nM; GI50 [43]: 2.77 nM; TGI [43]: 9.85 nM and 6.27 nM; GI50 [45]: 26.5 nM; GI50 [46]: 5.88 nM; GI50 [47]: 16.8 nM; TGI [47]: 52.3 nM and 40.9 nM; GI50 [48]: 23.1 nM; TGI [48]: 137 nM and 37.7 nM; GI50 [49]: 4.56 nM; TGI [49]: 17.5 nM and 9.41 nM; GI50 [50]: 2.65 nM; TGI [50]: 27.1 nM and 19 nM; GI50 [51]: 23.1 nM; TGI [51]: 252 nM and 102 nM; GI50 [52]: 19.2 nM; TGI [52]: 124 nM and 17.4 nM; GI50 [53]: 6.31 nM; TGI [53]: 33.2 nM and 43.7 nM; GI50 [54]: 32.2 nM; TGI [54]: 137 nM and 64.1 nM; TGI [55]: 32.3 nM; GI50 [56]: 6.29 nM; TGI [56]: 28.8 nM and 5.39 nM; GI50 [57]: 13.7 nM; TGI [57]: 34.2 nM and 23.3 nM; GI50 [58]: 8.08 nM

From PubChem BioAssay (NCI)
